Experimental findings from US20240150293A1, “SPIROCYCLOHEXANE DERIVATIVES, PHARMACEUTICAL COMPOSITIONS CONTAINING THEM AND THEIR USES AS ANTI-APOPTOTIC INHIBITORS” (LES LABORATOIRES SERVIER, priority 2021, published 2024) are described below.

Chain of Mcl-1 protein (Q07820 whole entry): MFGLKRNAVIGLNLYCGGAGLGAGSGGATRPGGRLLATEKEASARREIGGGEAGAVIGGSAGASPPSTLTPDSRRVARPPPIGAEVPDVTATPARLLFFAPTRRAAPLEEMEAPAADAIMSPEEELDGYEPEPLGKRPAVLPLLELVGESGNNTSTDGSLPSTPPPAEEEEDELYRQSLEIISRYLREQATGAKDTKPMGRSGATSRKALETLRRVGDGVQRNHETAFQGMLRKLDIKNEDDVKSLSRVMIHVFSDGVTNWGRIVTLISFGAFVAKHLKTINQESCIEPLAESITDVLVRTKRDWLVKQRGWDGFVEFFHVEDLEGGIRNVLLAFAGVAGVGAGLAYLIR

This test addresses Mcl-1 protein (UniProtKB Q07820) (Homo sapiens (Human), UniProt Q07820). As to the kind of experiment: Inhibition of Mcl-1 by the fluorescence polarisation assay (Example A, Method A). The class given is binding. Conditions: fluorescence polarization assay. A digest of the protocol:
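Protein (5 nM) and fluorescein-tagged peptide tracer (1 nM) incubated with 11-point compound series for 2 h at room temperature in HEPES/NaCl/Tween 20 buffer, pH 7.4, 5% DMSO. Displacement read as decrease in polarisation; IC50 fitted by 4-parameter logistic, converted to Ki (cKi or eKi).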
For orientation: In fluorescence polarisation assays a small probe gives low polarisation when free and higher when bound to something large.
Broadly, the Ki is the equilibrium dissociation constant of an inhibitor or competing ligand from its target. With `CC1=Cc2cccc(C)c2C12CCC(Nc1cccc(Br)c1)(C(=O)O)CC2` (centres unmarked) [Example 125, 4-(3-bromoanilino)-2′,7′-dimethylspiro[cyclohexane-1,1′-indene]-4-carboxylic acid], the inhibitory constant (Ki) is 7.5 µM.

On to `COc1ccc2c(c1)[C@]1(CC[C@](Nc3cccc(Br)c3)(C(=O)O)CC1)C(Cc1ccccc1)C2` (some centres unmarked) [Example 126, (1s,4s)-2′-benzyl-4-(3-bromoanilino)-6′-methoxy-2′,3′-dihydrospiro[cyclohexane-1,1′-indene]-4-carboxylic acid], for which the inhibition constant (Ki) came out at 9.15 µM.

Regarding `COc1ccc2c(c1)[C@]1(CC[C@@](Nc3cccc(Br)c3)(C(=O)O)CC1)C(Cc1ccccc1)C2` (some centres unmarked) [Example 127, (1r,4r)-2′-benzyl-4-(3-bromoanilino)-6′-methoxy-2′,3′-dihydrospiro[cyclohexane-1,1′-indene]-4-carboxylic acid], the inhibition constant (Ki) stood at 2.82 µM.

Regarding `COc1ccc2c(c1)[C@]1(CC[C@](Nc3cccc(Br)c3)(C(=O)O)CC1)C(C)(C)C2` [Example 128, (1s,4s)-4-(3-bromoanilino)-6′-methoxy-2′,2′-dimethyl-2′,3′-dihydrospiro[cyclohexane-1,1′-indene]-4-carboxylic acid], the inhibition constant Ki came to 46.2 µM.

With `COc1ccc2c(c1)[C@]1(CC[C@@](Nc3cccc(Cl)c3)(C(=O)O)CC1)C(Br)=C2` [Example 129, (1s,4s)-2′-bromo-4-(3-chloroanilino)-6′-methoxyspiro[cyclohexane-1,1′-indene]-4-carboxylic acid], the inhibition constant (Ki) came out at 0.0822 µM.

As for `COc1ccc2c(c1)C=C(Br)[C@]21CC[C@](Nc2cccc(Cl)c2)(C(=O)O)CC1` [Example 130, (1s,4s)-2′-bromo-4-(3-chloroanilino)-5′-methoxyspiro[cyclohexane-1,1′-indene]-4-carboxylic acid], the Ki was found to be 0.0924 µM.

With `CC(=O)c1ccc2c(c1)[C@]1(CC[C@@](Nc3cccc(Cl)c3)(C(=O)O)CC1)C(Br)=C2` [Example 132, (1s,4s)-6′-acetyl-2′-bromo-4-(3-chloroanilino)spiro[cyclohexane-1,1′-indene]-4-carboxylic acid], the inhibitory constant (Ki) was found to be 0.15 µM.

On to `CC(O)c1ccc2c(c1)[C@]1(CC[C@@](Nc3cccc(Cl)c3)(C(=O)O)CC1)C(Br)=C2` (some centres unmarked) [Example 133, (1s,4s)-2′-bromo-4-(3-chloroanilino)-6′-(1-hydroxyethyl)spiro[cyclohexane-1,1′-indene]-4-carboxylic acid], for which the Ki came out at 0.0576 µM.

Turning to `O=C(O)[C@]1(Nc2cccc(Cl)c2)CC[C@]2(CC1)C(Br)=Cc1ccc(Cl)cc12` [Example 134, (1s,4s)-2′-bromo-6′-chloro-4-(3-chloroanilino)spiro[cyclohexane-1,1′-indene]-4-carboxylic acid], the inhibition constant Ki is 0.265 µM.

Consider `O=C(O)[C@]1(Nc2cccc(Cl)c2)CC[C@]2(CC1)C(Br)=Cc1cc(Cl)ccc12` [Example 135, (1s,4s)-2′-bromo-5′-chloro-4-(3-chloroanilino)spiro[cyclohexane-1,1′-indene]-4-carboxylic acid], for which the Ki came to 0.2 µM.

`COc1cc2c(cc1OC)[C@]1(CC[C@@](Nc3cccc(Cl)c3)(C(=O)O)CC1)C(Br)=C2` [Example 136, (1s,4s)-2′-bromo-4-(3-chloroanilino)-5′,6′-dimethoxyspiro[cyclohexane-1,1′-indene]-4-carboxylic acid]: the inhibition constant Ki was found to be 0.259 µM.

As to `O=C(O)[C@]1(Nc2cccc(Cl)c2)CC[C@]2(CC1)C(Br)=Cc1c(Cl)cccc12` [Example 137, (1s,4s)-2′-bromo-4′-chloro-4-(3-chloroanilino)spiro[cyclohexane-1,1′-indene]-4-carboxylic acid], the Ki amounted to 0.192 µM.

Regarding `O=C(O)[C@]1(Nc2cccc(Cl)c2)CC[C@]2(CC1)C(Br)=Cc1cc(F)ccc12` [Example 138, (1s,4s)-2′-bromo-4-(3-chloroanilino)-5′-fluorospiro[cyclohexane-1,1′-indene]-4-carboxylic acid], the inhibition constant (Ki) came out at 0.219 µM.

In the case of `O=C(O)[C@]1(Nc2cccc(Cl)c2)CC[C@]2(CC1)C(Br)=Cc1ccc(F)cc12` [Example 139, (1s,4s)-2′-bromo-4-(3-chloroanilino)-6′-fluorospiro[cyclohexane-1,1′-indene]-4-carboxylic acid], the inhibition constant (Ki) amounted to 0.265 µM.

`CC1=Cc2ccccc2[C@]12CC[C@@](Nc1cccc(Br)c1)(C(=O)O)CC2` [Example 142, (1r,4r)-4-(3-bromoanilino)-2′-methylspiro[cyclohexane-1,1′-indene]-4-carboxylic acid]: the Ki stood at 0.261 µM.

Consider `CC1=Cc2ccccc2[C@]12CC[C@@](Nc1cccc(Cl)c1)(C(=O)O)CC2` [Example 143, (1r,4r)-4-(3-chloroanilino)-2′-methylspiro[cyclohexane-1,1′-indene]-4-carboxylic acid], for which the Ki came out at 0.182 µM.

Regarding `CCC1=Cc2ccccc2[C@]12CC[C@](Nc1cccc(Br)c1)(C(=O)O)CC2` [Example 146, (1s,4s)-4-(3-bromoanilino)-2′-ethylspiro[cyclohexane-1,1′-indene]-4-carboxylic acid], the Ki turned out to be 6.92 µM.

`CCCC1Cc2ccccc2[C@]12CC[C@@](Nc1cccc(Br)c1)(C(=O)O)CC2` (some centres unmarked) [Example 148, (1r,4r)-4-(3-bromoanilino)-2′-propyl-2′,3′-dihydrospiro[cyclohexane-1,1′-indene]-4-carboxylic acid]: the Ki stood at 0.258 µM.

With `O=C(O)[C@]1(Nc2cccc(Br)c2)CC[C@@]2(CC1)C(CCCc1ccccc1)=Cc1ccccc12` [Example 149, (1s,4s)-4-(3-bromoanilino)-2′-(3-phenylpropyl)spiro[cyclohexane-1,1′-indene]-4-carboxylic acid], the Ki was 63.3 µM.

With `O=C(O)[C@]1(Nc2cccc(Cl)c2)CC[C@]2(CC1)C(/C=C/CC1CCCC1)=Cc1ccccc12` [Example 152, (1r,4r)-4-(3-chloroanilino)-2′-[(1E)-3-cyclopentylprop-1-en-1-yl]spiro[cyclohexane-1,1′-indene]-4-carboxylic acid], the inhibition constant Ki was found to be 0.609 µM.

Consider `O=C(O)[C@]1(Nc2cccc(Cl)c2)CC[C@@]2(CC1)c1ccccc1CC2CCCC1CCCC1` (some centres unmarked) [Example 153, (1r,4r)-4-(3-chloroanilino)-2′-(3-cyclopentylpropyl)-2′,3′-dihydrospiro[cyclohexane-1,1′-indene]-4-carboxylic acid], for which the inhibition constant (Ki) amounted to 0.507 µM.

Turning to `CCOC/C=C/C1=Cc2ccccc2[C@]12CC[C@@](Nc1cccc(Cl)c1)(C(=O)O)CC2` [Example 154, (1r,4r)-4-(3-chloroanilino)-2′-[(1E)-3-ethoxyprop-1-en-1-yl]spiro[cyclohexane-1,1′-indene]-4-carboxylic acid], the inhibitory constant (Ki) was 0.162 µM.

As to `COc1ccc(CCCC2=Cc3ccccc3[C@]23CC[C@@](Nc2cccc(Cl)c2)(C(=O)O)CC3)cc1` [Example 155, (1r,4r)-4-(3-chloroanilino)-2′-[3-(4-methoxyphenyl)propyl]spiro[cyclohexane-1,1′-indene]-4-carboxylic acid], the Ki amounted to 0.71 µM.

Regarding `CCOCCCC1Cc2ccccc2[C@]12CC[C@@](Nc1cccc(Cl)c1)(C(=O)O)CC2` (some centres unmarked) [Example 156, (1r,4r)-4-(3-chloroanilino)-2′-(3-ethoxypropyl)-2′,3′-dihydrospiro[cyclohexane-1,1′-indene]-4-carboxylic acid], the Ki was 0.621 µM.

As for `O=C(O)[C@]1(Nc2cccc(Cl)c2)CC[C@]2(CC1)C(CCCc1ccc(Cl)cc1)=Cc1ccccc12` [Example 157, (1r,4r)-4-(3-chloroanilino)-2′-[3-(4-chlorophenyl)propyl]spiro[cyclohexane-1,1′-indene]-4-carboxylic acid], the Ki was found to be 0.846 µM.

With `O=C(O)[C@]1(Nc2cccc(Cl)c2)CC[C@]2(CC1)C(/C=C/c1ccc(-c3ccccc3)cc1)=Cc1ccccc12` [Example 158, (1r,4r)-2′-[(E)-2-([1,1′-biphenyl]-4-yl)ethenyl]-4-(3-chloroanilino)spiro[cyclohexane-1,1′-indene]-4-carboxylic acid], the inhibition constant Ki was found to be 0.311 µM.

For `C/C=C/C1=Cc2ccccc2[C@]12CC[C@@](Nc1cccc(Cl)c1)(C(=O)O)CC2` [Example 159, (1r,4r)-4-(3-chloroanilino)-2′-[(1E)-prop-1-en-1-yl]spiro[cyclohexane-1,1′-indene]-4-carboxylic acid], the Ki was determined as 0.233 µM.

Regarding `O=C(O)[C@]1(Nc2cccc(Cl)c2)CC[C@]2(CC1)C(CCCCOc1ccccc1)=Cc1ccccc12` [Example 160, (1r,4r)-4-(3-chloroanilino)-2′-(4-phenoxybutyl)spiro[cyclohexane-1,1′-indene]-4-carboxylic acid], the Ki stood at 0.768 µM.

For the molecule `COc1ccc(CCCC2Cc3ccccc3[C@]23CC[C@@](Nc2cccc(Cl)c2)(C(=O)O)CC3)cc1` (some centres unmarked) [Example 161, (1r,4r)-4-(3-chloroanilino)-2′-[3-(4-methoxyphenyl)propyl]-2′,3′-dihydrospiro[cyclohexane-1,1′-indene]-4-carboxylic acid], the inhibition constant (Ki) worked out at 0.447 µM.

Take `O=C(O)[C@]1(Nc2cccc(Cl)c2)CC[C@@]2(CC1)c1ccccc1CC2CCCc1ccc(Cl)cc1` (some centres unmarked) [Example 162, (1r,4r)-4-(3-chloroanilino)-2′-[3-(4-chlorophenyl)propyl]-2′,3′-dihydrospiro[cyclohexane-1,1′-indene]-4-carboxylic acid]: the Ki stood at 0.558 µM.

As for `O=C(O)[C@]1(Nc2cccc(Br)c2)CC[C@@]2(CC1)c1ccccc1CC2CCc1cccc2[nH]ccc12` (some centres unmarked) [Example 163, (1r,4r)-4-(3-bromoanilino)-2′-[2-(1H-indol-4-yl)ethyl]-2′,3′-dihydrospiro[cyclohexane-1,1′-indene]-4-carboxylic acid], the Ki was 0.679 µM.

Consider `O=C(O)[C@]1(Nc2cccc(Br)c2)CC[C@@]2(CC1)c1ccccc1CC2CCc1cccnc1` (some centres unmarked) [Example 164, (1r,4r)-4-(3-bromoanilino)-2′-[2-(pyridin-3-yl)ethyl]-2′,3′-dihydrospiro[cyclohexane-1,1′-indene]-4-carboxylic acid], for which the Ki was 0.6 µM.
